In US8703813B2, “Compound with spiro chiral carbon backbone, preparation method thereof, and pharmaceutical composition containing the same” (SNU R & DB Foundation, priority 2008, dated 2014):

Tests used:
LXR protein = assay: Biacore direct binding experiment
C3H/10T1/2 cells = assay: Osteoblast formation activity (calcium deposition assay, Alizarin Red S); assay type: cell-based, mouse
Description: C3H/10T1/2 cells, which are mouse mesenchymal progenitor cells purchased from ATCC, were diluted in DMEM (Dulbecco's Modified Eagle Medium) medium containing 5.958 g/L HEPES, 3.7 g/L sodium bicarbonate, and 10% FBS (fetal bovine serum), and cultured in 24-well culture plates at a density of 4×10^4 cells/well, in the presence of 5% CO2 at 37° C. for 2 days. The cultured cells were grown to 90˜100% confluency in the culture plates, the cells were cultured in DMEM medium containing 10% FBS, to which 10 mM of β-glycerophosphate and 50μ/ml of ascorbic acid were added, in the presence of 5% CO2 at 37° C. for 6 days, to induce differentiation into osteoblast. The medium was exchanged every other day during differentiation. The C3H/10T1/2 cell line, in which differentiation into the osteoblast was induced, was washed with PBS (Phosphate Buffered Saline) once, and fixed with 70% ethanol at 20° C. for 1 hour. The cells after fixing were washed with cold PBS three times, and stained with 40 mM Alizarin Red S dye solution at room temperature for 20 minutes. The dye solution was removed and the cells were washed with distilled water three times in order to selectively observe only the cells differentiated into the osteoblast.
An aliquot 116V and an aliquot 116VI extracted and partitioned from sponges are dissolved in a DMSO solvent, and used to treat the C3H/10T1/2 cell line, mesenchymal progenitor cells, at concentrations of 1, 2.5, 5, 10, and 20 ug/ml. […] Since then, the same experiment was performed on the compound (1163), the compound 2 (1162), the compound 3 (1161), and the compound 4 (1164), which were purely separated from the aliquots 116V and 116VI, and as a result, it could be confirmed that the osteoblast differentiation ability was increased in the compounds 1, 3, and 4. […] To study a mechanism with respect to osteoblast differentiation ability, the C3H/10T1/2 cell lines were treated with the compound 1 and the compound 4 for 6 days, respectively. […] Also, the C3H/10T1/2 cell lines were treated with the compound 1 and the compound 4 for 6 days, respectively. […] Furthermore, it could be ascertained that combining of Runx2 and TAZ proteins was increased by treatment of the compounds and thus the activity of Runx2-meditated transcription was increased. The compound 5, which is an ester derivative of the compound 1 (1163), was synthesized in order to prepare a material having more excellent bioactivity, and the structure of the compound 5 obtained thus was determined. […] Therefore, the compounds of the present invention and derivatives thereof are expected to promote the differentiation of the osteoblast and thus play an innovative role in treatment of osteoporosis.

other nuclear receptors = assay: Selectivity for various nuclear receptors, transfection assay; assay type: cell-based; conditions: same method as LXR assay
Description: Animal cell line CV-1 was used in transfection search. Cells were cultured in DMEM medium within a cell culture device containing 5% carbon dioxide at 37° C. The medium contained 10% FBS (fetal bovine serum), 100 U/ml penicillin, and 100 μg/ml streptomycin. On day 1 of the experiment, CV 1 cells were seeded in 96 well plates at 5,000 cells/well. On day 2, the seeded cells were transfected with plasmid expressing GAL-hLXR, plasmid expressing Luciferase gene, and plasmid expressing β-galactocidase by using a transfection reagent, Superfect (QIAGEN). After 16 hours, the transfected cells were treated with the compound 1 dissolved in dimethylsulfoxide (DMSO) by the concentrations, together with the agonist, TO901317 (2.5 μM). Cells treated with dimethylsulfoxide having the final concentration of 1% were used as a negative control group, and cells treated with T0901317 having the final concentration of 500 nM were used as a positive control group. The cells were cultured for 24 hours, and lysed by using a lysis buffer. […] The β-galactosidase activity, after adding of an ONPG reagent, was measured using an ELISA reader. The measured Luciferase value was corrected by activity value of β-galactosidase. […] In addition, the activities on various nuclear receptors were measured by using the same method, in order to measure selectivity for various nuclear receptors.

direct binding with the LXR protein (LXR protein): directly bound
activity on the other nuclear receptors (other nuclear receptors): never showed the activity
Compound: CC(C)=CCC/C(C)=C/[C@H]1CC(C)=C[C@@]2(C=C(CO)[C@@H]3CC(=O)C(C)=C[C@@H]3O2)O1 [Compound 1]
osteoblast differentiation ability, concentration dependence (C3H/10T1/2 cells; C3H/10T1/2, 1, 2.5, 5, 10, and 20 ug/ml, 6 days): remarkably increased at the concentrations of up to 10 ug/ml in a concentration-dependent manner
osteoblast differentiation ability (C3H/10T1/2 cells; C3H/10T1/2, calcium deposition): increased
concentration at which cytotoxicity was observed (C3H/10T1/2 cells; C3H/10T1/2 during osteoblast differentiation): 20000 ng/mL
